For one test, the target named is T1, CXCR2 (Homo sapiens, UniProt P25025).
T1 sequence (P25025 1-360): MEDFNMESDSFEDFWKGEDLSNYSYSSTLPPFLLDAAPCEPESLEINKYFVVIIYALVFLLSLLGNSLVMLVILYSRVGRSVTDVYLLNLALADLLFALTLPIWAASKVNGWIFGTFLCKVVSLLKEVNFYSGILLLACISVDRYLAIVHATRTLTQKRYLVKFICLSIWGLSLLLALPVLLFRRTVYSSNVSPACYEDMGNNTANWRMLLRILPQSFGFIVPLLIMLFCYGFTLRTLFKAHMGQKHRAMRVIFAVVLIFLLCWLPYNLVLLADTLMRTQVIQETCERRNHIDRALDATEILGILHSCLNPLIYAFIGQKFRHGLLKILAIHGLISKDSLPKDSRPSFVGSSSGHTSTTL
In words: BRET Gi coupling, CXCR2/Rluc8 and Venus/mGsi without HA-AT1R, HEK293FT cells. Particulars: 100 nM CXCL8, 1 μM AngII, FIG. 1A. Format: cell-based. On the procedure: HEK293FT cells were seeded in 6-well plates at a density of approximately 700,000 cells/well and maintained at 37° C., 5% CO2 in Complete Media (DMEM containing 0.3 mg/ml glutamine, 100 IU/ml penicillin and 100 μg/ml streptomycin (Gibco/Thermo Fisher)) supplemented with 10% fetal calf serum (FCS; Bovogen). Transient transfections were carried out 24 h after seeding using FuGene6™ (Promega) according to manufacturer instructions. 24 h post-transfection, cells were washed with PBS, detached using 0.05% trypsin/0.53 mM EDTA, resuspended in HEPES-buffered phenol red free Complete Media containing 5% FCS and added to a poly-L-lysine-coated white 96-well microplate (Greiner Bio-One). 48 h post-transfection, bioluminescence resonance energy transfer (BRET) assays were carried out following pre-incubation of cells with EnduRen™ (Promega) at a final concentration of 30 μM, at 37° C., 5% CO2 for 2 h. BRET measurements were taken at 37° C. using the LUMlstar™ or CLARIOstar™ (BMG Labtech). Filtered light emissions were measured for 1 s in each of the ‘donor wavelength window’ (460-490 nm for LUMlstar™ or 410-490 nm for CLARIOstar™) and ‘acceptor wavelength window’ (520-550 nm for LUMlstar™ or 520-620 nm for CLARIOstar™).
The BRET signal observed between interacting proteins is normalized by subtracting the background BRET ratio. […]
In general terms: Bioluminescence resonance energy transfer reports proximity on the nanometre scale.

The next test has as its target T2, AT1R and CXCR2 (Homo sapiens, UniProt P25025+P30556).
T2 sequence (P30556 1-359): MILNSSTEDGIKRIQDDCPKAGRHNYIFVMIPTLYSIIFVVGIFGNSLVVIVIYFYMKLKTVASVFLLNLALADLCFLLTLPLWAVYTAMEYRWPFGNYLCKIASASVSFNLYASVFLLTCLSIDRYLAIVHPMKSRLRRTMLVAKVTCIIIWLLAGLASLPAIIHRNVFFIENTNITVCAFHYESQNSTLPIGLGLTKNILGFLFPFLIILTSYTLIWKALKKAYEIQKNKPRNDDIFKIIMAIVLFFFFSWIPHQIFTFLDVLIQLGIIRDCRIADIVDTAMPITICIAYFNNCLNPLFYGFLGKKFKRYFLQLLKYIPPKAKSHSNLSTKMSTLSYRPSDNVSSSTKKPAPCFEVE
T2 sequence (P25025 1-360): T1 sequence (P25025 1-360)
Put plainly: IP1 accumulation, HEK293 cells transiently-transfected with AT1R and CXCR2. Format: cell-based. On the procedure:
Referring now to FIG. 2, Receptor activation of the phospholipase C pathway was detected through the measurement of D-myo-Inositol 1-Phosphate (IP1) by competitive immunoassay (IP-one—Gq Kit, Cisbio 62IPAPEC). Human Embryonic Kidney (HEK) 293 cells were transiently transfected in suspension with the AGTR1 vector (Origene RC212008) alone or co-transfected with the CXCR2 vector (Origene Cat RC207794) using FuGene™ HD reagent (Promega E2311). […] Agonists were prepared in a threefold serial dilution in stimulation buffer+0.1% BSA and added to the assay to give the appropriate final concentration-response curves, and co-stimulation at a single concentration as required. An IP1 standard curve was also constructed in 14 μl Stimulation Buffer+0.1% BSA. Incubations were conducted for 90 min at 37° C., 5% CO2, after which 3 μl IP1-d2 Reagent and 3 μl IP1 Tb Cryptate Antibody (Cisbio 62IPAPEC), in Lysis & Detection buffer, were added to each well for 60 min at room temperature. Plates were read on a HTRF® compatible reader (PHERAstar™, BMG Labtech), using 337 nm excitation and collecting donor/acceptor emission at 620 nm and 665 nm. A standard curve was plotted to interpolate unknown HTRF ratio (665/620×10 000) measurements as IP1 concentration (nM). […]

Results on 1 substance are retold here after US20240009191A1, “METHOD AND COMPOSITION FOR THE TREATMENT OF DISEASE” (DIMERIX BIOSCIENCE PTY LTD, priority 2019, published 2024).

Take Angiotensin II [AngII]: at CXCR2, the “ligand-induced BRET signal, CXCR2/Rluc8 and Venus/mGsi” value was “did not result in an increase”. Besides, the “Rmax, IP1 accumulation” value on AT1R and CXCR2 came out at 567 nM.
